The values that follow come from publication PMC9394284, “Discovery of Novel Dual Adenosine A2A and A1 Receptor Antagonists with 1H-Pyrazolo[3,4-d]pyrimidin-6-amine Core Scaffold as Anti-Parkinson’s Disease Agents” (Pharmaceuticals, 2022).

The data set can be described thus: metabolic stability in cryopreserved rat hepatocytes. As to the method:
Metabolic stability of 11o was determined in cryopreserved hepatocytes from mice, rats, dogs, monkeys and human according to the SOPs of Frontage Laboratories Inc. Briefly, cryopreserved hepatocytes for pre-clinical animals and for human (BioIVT, Westbury, NY, USA) were thawed in a 37 °C water bath with gentle shaking until ice had almost melted. The suspensions were immediately transferred to a centrifuge tube (50 mL) containing pre-warmed thawing media at 37 °C with gentle handshaking to prevent the cells from settling. Cell suspensions were centrifuged at 50× g and 4 °C for 5 min. The supernatant was discarded and the pellets were resuspended in prewarmed incubation media (5 mL) at 37 °C. The percentage of viable cells in the suspension was determined by Trypan blue staining method to ensure viability of ≥70 %. […] The samples were centrifuged and aliquots of the supernatant were analyzed for parent compounds by LC/MS/MS using suitable multiple reaction monitoring (MRM) transitions. […] The disappearance of 11o and midazolam was monitored by LC/MS/MS (MRM) analysis of the hepatocyte extracts at each time point. The peak area ratio of the analyte to internal standard was obtained for each sample and the rate of disappearance of 11o was assessed by comparing the peak area ratios at various time points to the peak area ratio obtained at t = 0. The t1/2 is obtained (using the linear portion of semi-log plot of the area ratio vs. time) and the CLint values determined using well-stirred model.

Where [1] appears, read: Sprague Dawley, rat, cryopreserved hepatocytes in suspension.

As usually defined, the CLint scaled is a measure of how fast metabolising enzymes remove a compound, apart from limits set by blood flow. A low value points to greater metabolic stability. The term half-life denotes how long it takes for the measured level to halve. Lower therefore signals rapid decline. As a reminder, the hepatocyte CLint is the capacity of the preparation to metabolise the compound, expressed as a volume cleared per time. A high value points to rapid turnover.

Under setting [1], `Cc1cc(Cn2ncc3c(-c4cccc(C#N)c4F)nc(N)nc32)ccc1N` [11o, 3-(6-Amino-1-(4-amino-3-methylbenzyl)-1H-pyrazolo[3,4-d]pyrimidin-4-yl)-2-fluorobenzonitrile] displayed a CLint scaled at 1 μM of 69.2 mL/min/kg, a half-life at 1 μM of 46.9 min and a hepatocyte CLint at 1 μM of 14.8 µL/min/1e6 cells. Besides, the “Intrinsic Clearance” value (rat hepatocytes, 1 μM 11o) is 0.0148 mL/min/10^6 Cells.
